{
  "source": "patent US8795977B2",
  "about": "“Method for screening a potential modulator compound of a taste receptor” (Conopco, Inc., priority 2009, dated 2014)",
  "system": "Control cells (no T1R1/T1R3)",
  "assay": "Calcium-based receptor assay in control cells not expressing the receptor",
  "type": "cell-based, human",
  "conditions": "change in fluorescence (ΔF)",
  "excerpt": "We developed a unique functional umami receptor assay to evaluate and quantify umami in tomato and other crude plant or food extracts using the BRET technique: to test the principle we used the donor and acceptor proteins relating to BRET-2. In short, the human T1R1 and T1R3 taste receptors were cloned and fused with Renilla luciferase (Rluc) as donor protein; green fluorescent protein-2 (GFP2) served as acceptor protein and was fused to β-arrestin-2. Both constructs were transfected into a HEK293 cell line cells) for heterologous expression of the proteins. Various mammalian cell lines have been reported to be highly suitable for expression of receptors or other proteins, with HEK293 (human embryonic kidney) cells and CHO (Chinese hamster ovary) cells being some of the most versatile and suitable ones^12. Similarly, GPCRs can be expressed in various ways as described in multiple publications, such as transient^6, 8, 13-15 or stable (constitutive or inducible)^6, 9, 16, 17 expression, depending on the nature of the experiment, the respective receptor or the available time. Upon receptor stimulation with an agonist or crude extracts, the β-arrestin-2/GFP-2 protein interacts with the activated receptor thus bringing GFP-2 in close proximity with luciferase, making energy transfer between these two proteins possible and generating a BRET signal. In the presence of oxygen the luciferase catalyses the transformation of the substrate DeepBlueC into coelenteramide, which can be measured at 395-410 nm. If GFP-2 is in close proximity to the luciferase and energy transfer takes place, the emission will shift to 510 nm; this is referred to as the BRET signal and is expressed as ratio between the acceptor (GFP-2) and the donor (Renilla luciferase). The following experiments are designed to illustrate that conventional calcium-based functional receptor assays are not suitable for measuring the effects of crude extracts; in contrast, the BRET assay (as indicated here with umami) can clearly measure specific receptor responses using crude natural extracts. Moreover, the assay is also sensitive enough for detecting differences of receptor activation between the different tomato samples. Materials & Methods: Chemicals and Media: Fluo-4 AM was from Molecular Probes (# F-14202, prepared as 5 mM stock in DMSO), DMEM (with 4.5 g/l glucose and ultraglutamine, # BE12-604F) was from Lonza, trypsin-EDTA, Lipofectamine 2000, OptiMem and FCS were obtained from Life Technologies Invitrogen. Monosodium glutamate (MSG), Inosine 5′-monophosphate as well as all other chemicals were from Sigma-Aldrich. The plasmid encoding GFP2-β-arrestin-2 was purchased from BioSignal Packard (#6310176). Coelenterazine 400A (a DeepBlueC derivative) and Coelenterazine-H were from VWR International (# BTIU10125-1 and 233903-50, respectively). All other cell culture supplies were from Greiner BioOne. Receptor Fusion Constructs, Cell Lines, and Media: The human T1R1 and human T1R3 umami receptors were fused at their C-terminal in frame to Renilla Luciferase (Rluc) using standard molecular cloning techniques and the codon-humanized pRluc-N3 vector from PerkinElmer (#6310220). For expression of the umami receptors and the construct encoding GFP-2/β-arrestin-2, HEK293 cells (human embryonic kidney cells, ATCC) were used using traditional transfection methods (see also below). HEK293 cells were maintained in DMEM and 10% FBS at 37° C./5% CO2. Tomato Extracts: The tomato extracts which served as representative natural, complex test material were prepared as follows: Frozen tomato samples (in −80° C.) were weighed and dissolved in an equal amount of water. After the seeds and locular tissues (pulp) were removed and put aside, the tomato pericarp (flesh) was ground using a mortar and pestle. The seeds and pulp were then added back to the mixture ensuring that they are well mixed and the seeds were not crushed. […]",
  "data": [
    {"smiles": "N[C@@H](CCC(=O)O)C(=O)[O-].[Na+]", "note": "[MSG, Monosodium glutamate]", "values": [
      {"measurement": "release of intracellular calcium, Control cells (no T1R1/T1R3), average", "setting": "100 μM MSG", "result": 1135},
      {"measurement": "release of intracellular calcium, Control cells (no T1R1/T1R3), meas. 1", "setting": "100 μM MSG", "result": 1102},
      {"measurement": "release of intracellular calcium, Control cells (no T1R1/T1R3), meas. 2", "setting": "100 μM MSG", "result": 1168},
      {"measurement": "release of intracellular calcium, Control cells (no T1R1/T1R3), average", "setting": "1 mM MSG", "result": 1060},
      {"measurement": "release of intracellular calcium, Control cells (no T1R1/T1R3), meas. 1", "setting": "1 mM MSG", "result": 1100},
      {"measurement": "release of intracellular calcium, Control cells (no T1R1/T1R3), meas. 2", "setting": "1 mM MSG", "result": 1020},
      {"measurement": "release of intracellular calcium, Control cells (no T1R1/T1R3), average", "setting": "10 mM MSG", "result": 1115},
      {"measurement": "release of intracellular calcium, Control cells (no T1R1/T1R3), meas. 1", "setting": "10 mM MSG", "result": 1200},
      {"measurement": "release of intracellular calcium, Control cells (no T1R1/T1R3), meas. 2", "setting": "10 mM MSG", "result": 1030}
    ]}
  ]
}
